Consider 17 molecules from patent EP1167342A1, “Novel substituted nitrocatechols, their use in the treatment of some central and peripheral nervous system disorders and pharmaceutical compositions containing them” (Portela & Ca., S.A., priority 2000, dated 2002).

The target of one assay is T1, COMT (Homo sapiens, UniProt P21964).
T1 construct: COMT activity was evaluated in cell monolayers by the ability to methylate adrenaline; host or cells: SK-N-SH
T1 sequence (P21964 1-271): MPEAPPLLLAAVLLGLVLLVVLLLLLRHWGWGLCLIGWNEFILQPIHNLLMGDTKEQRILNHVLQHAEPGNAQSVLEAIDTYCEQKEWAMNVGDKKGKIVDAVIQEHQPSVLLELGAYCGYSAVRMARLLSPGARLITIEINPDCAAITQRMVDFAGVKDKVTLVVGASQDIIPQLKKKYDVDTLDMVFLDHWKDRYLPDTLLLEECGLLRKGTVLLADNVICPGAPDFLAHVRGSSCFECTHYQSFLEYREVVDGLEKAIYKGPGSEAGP
Kind of assay: COMT activity in intact SK-N-SH cells (methylation of adrenaline to metanephrine, HPLC with electrochemical detection). Format: cell-based. The note with it: concentration of test compound 100 nM, means ±SEM of n=4-8.

A further assay deals with Brain COMT. The assay can be described thus: Ex vivo COMT activity in mouse brain homogenates after administration of test compound by gastric tube. The note with it: for Brain COMT (% of control) 1h / Brain COMT (% of control) 6h: homogenates of mice brain, dose not given, means±S.E.M. of 4-8 experiments; for Brain COMT (% of control) 1h: 1 h after administration by gastric tube; for Brain COMT (% of control) 6h: 6 h after administration by gastric tube; for activity in the brain: conclusion, statement in words. On the set-up: species or system NMRI mice.

The next assay relates to Liver COMT. The assay can be described thus: Ex vivo COMT activity in mouse liver homogenates after administration of test compound by gastric tube. On the set-up: species or system NMRI mice. The note with it: for Liver COMT (% of control) 1h / Liver COMT (% of control) 6h: homogenates of mice liver, dose not given, means±S.E.M. of 4-8 experiments; for Liver COMT (% of control) 1h: 1 h after administration by gastric tube; for Liver COMT (% of control) 6h: 6 h after administration by gastric tube; for potency upon liver COMT compared with brain COMT: mice, after oral administration, statement in words.

On to `Cl.O=C(CN1CCCCCC1)c1cc(O)c(O)c([N+](=O)[O-])c1` [Compound 1, 2-Azepan-1-yl-1-(3,4-dihydroxy-5-nitro-phenyl)-ethanone hydrochloride], for which, at COMT, the “COMT activity (% of control)” value was 4.3±0.6 % of control. Further, in the assay with Brain COMT, the “Brain COMT (% of control) 1h” value is given as 45.0±15.0 % of control and the “Brain COMT (% of control) 6h” value is 102.0±19.0 % of control. In addition, in the assay with Liver COMT, the “Liver COMT (% of control) 1h” value was 40.8±6.4 % of control and the “Liver COMT (% of control) 6h” value is listed as 49.9±2.2 % of control.

`Cl.O=C(CCN1CCCCC1)c1cc(O)c(O)c([N+](=O)[O-])c1` [Compound 2, 1-(3,4-Dihydroxy-5-nitro-phenyl)-3-piperidin-1-yl-propan-1-one hydrochloride]: the “COMT activity (% of control)” value at COMT is on record as 7.5±0.6 % of control. Moreover, in the assay on Brain COMT, the “activity in the brain” value is listed as “limited activity in the brain”, the “Brain COMT (% of control) 1h” value is listed as 80.0±11.0 % of control and the “Brain COMT (% of control) 6h” value is 95.0±12.0 % of control. In the assay with Liver COMT, the “Liver COMT (% of control) 1h” value is on record as 24.6±4.8 % of control, the “Liver COMT (% of control) 6h” value was 56.9±17.7 % of control and the “potency upon liver COMT compared with brain COMT” value is given as “much more potent upon liver COMT than brain COMT”.

For the molecule `Cl.O=C(CC(c1ccccc1)N1CCCCC1)c1cc(O)c(O)c([N+](=O)[O-])c1` (stereo not shown) [Compound 3, 1-(3,4-Dihydroxy-5-nitro-phenyl)-3-phenyl-3-piperidin-1-yl-propan-1-one hydrochloride], the “COMT activity (% of control)” value at COMT is 7.2±1.9 % of control. In addition, in the assay with Brain COMT, the “activity in the brain” value is reported as “limited activity in the brain”, the “Brain COMT (% of control) 1h” value is listed as 81.0±11.0 % of control and the “Brain COMT (% of control) 6h” value is 71.0±11.0 % of control. For the same molecule, in the assay with Liver COMT, the “Liver COMT (% of control) 1h” value is recorded as 13.5±3.2 % of control, the “Liver COMT (% of control) 6h” value is on record as 13.6±3.2 % of control and the “potency upon liver COMT compared with brain COMT” value is reported as “much more potent upon liver COMT than brain COMT”.

Consider `Cl.O=C(CC(c1ccccc1)N1CCCC1)c1cc(O)c(O)c([N+](=O)[O-])c1` (stereo not shown) [Compound 4, 1-(3,4-Dihydroxy-5-nitro-phenyl)-3-phenyl-3-pyrrolidin-1-yl-propan-1-one hydrochloride], for which the “COMT activity (% of control)” value on COMT is recorded as 23.8±2.9 % of control. For the same molecule, in the assay with Brain COMT, the “Brain COMT (% of control) 1h” value was 55.0±8.7 % of control and the “Brain COMT (% of control) 6h” value is 49.6±4.9 % of control. Further, in the assay with Liver COMT, the “Liver COMT (% of control) 1h” value is on record as 12.0±1.8 % of control and the “Liver COMT (% of control) 6h” value is 14.4±4.3 % of control.

On to `Cl.O=C(CC(c1ccccc1)N1CCOCC1)c1cc(O)c(O)c([N+](=O)[O-])c1` (stereo not shown) [Compound 5, 1-(3,4-Dihydroxy-5-nitro-phenyl)-3-morpholin-4-yl-3-phenyl-propan-1-one hydrochloride], for which the “COMT activity (% of control)” value on COMT is reported as 40.2±8.7 % of control. For the same molecule, in the assay on Brain COMT, the “Brain COMT (% of control) 1h” value is 38.6±6.4 % of control and the “Brain COMT (% of control) 6h” value was 57.2±5.1 % of control. Further, in the assay on Liver COMT, the “Liver COMT (% of control) 1h” value is recorded as 16.7±1.6 % of control; the “Liver COMT (% of control) 6h” value was 35.2±9.6 % of control; the “potency upon liver COMT compared with brain COMT” value was “equally potent in inhibiting liver and brain COMT activity”.

Turning to `CC1CCCCN1CC(=O)c1cc(O)c(O)c([N+](=O)[O-])c1.Cl` (stereo not shown) [Compound 6, 1-(3,4-Dihydroxy-5-nitro-phenyl)-2-(2-methyl-piperidin-1-yl)-ethanone hydrochloride], on COMT, the “COMT activity (% of control)” value is on record as 12.2±1.7 % of control. Moreover, in the assay with Brain COMT, the “Brain COMT (% of control) 1h” value is 37.0±3.3 % of control and the “Brain COMT (% of control) 6h” value was 66.0±2.6 % of control. Besides, in the assay on Liver COMT, the “Liver COMT (% of control) 1h” value is 57.6±5.8 % of control and the “Liver COMT (% of control) 6h” value is reported as 99.9±10.3 % of control.

As to `CCN(CC)C(C)C(=O)c1cc(O)c(O)c([N+](=O)[O-])c1.Cl` (stereo not shown) [Compound 7, 2-Diethylamino-1-(3,4-dihydroxy-5-nitro-phenyl)-propan-1-one hydrochloride], the “COMT activity (% of control)” value at COMT was 9.0±0.2 % of control. Also, in the assay with Brain COMT, the “Brain COMT (% of control) 1h” value is reported as 74.0±12.0 % of control and the “Brain COMT (% of control) 6h” value is listed as 126.0±8.0 % of control. Further, in the assay on Liver COMT, the “Liver COMT (% of control) 1h” value was 38.4±2.8 % of control and the “Liver COMT (% of control) 6h” value is 57.1±4.9 % of control.

In the case of `O=C(COc1ccccc1)c1cc(O)c(O)c([N+](=O)[O-])c1` [Compound 8, 1-(3,4-Dihydroxy-5-nitro-phenyl)-2-phenoxy-ethanone], the “COMT activity (% of control)” value at COMT is listed as 8.6±0.1 % of control. Further, in the assay with Brain COMT, the “Brain COMT (% of control) 1h” value was 61.0±4.0 % of control and the “Brain COMT (% of control) 6h” value is on record as 104.4±6.2 % of control. Besides, in the assay on Liver COMT, the “Liver COMT (% of control) 1h” value is 22.0±3.7 % of control and the “Liver COMT (% of control) 6h” value was 49.6±9.4 % of control.

With `COc1ccc(OCC(=O)c2cc(O)c(O)c([N+](=O)[O-])c2)cc1` [Compound 9, 1-(3,4-Dihydroxy-5-nitro-phenyl)-2-(4-methoxy-phenoxy)-ethanone], the “COMT activity (% of control)” value on COMT was 12.8±0.4 % of control. Also, in the assay with Brain COMT, the “Brain COMT (% of control) 1h” value is 59.0±6.0 % of control and the “Brain COMT (% of control) 6h” value is on record as 93.0±9.0 % of control. Moreover, in the assay on Liver COMT, the “Liver COMT (% of control) 1h” value was 29.0±1.0 % of control and the “Liver COMT (% of control) 6h” value is 35.0±6.0 % of control.

As for `O=C(COc1ccc2ccccc2c1)c1cc(O)c(O)c([N+](=O)[O-])c1` [Compound 10, 1-(3,4-Dihydroxy-5-nitro-phenyl)-2-(naphthalen-2-yloxy)-ethanone], the “COMT activity (% of control)” value on COMT is 2.0±0.1 % of control. In the assay on Brain COMT, the “activity in the brain” value is “limited activity in the brain”, the “Brain COMT (% of control) 1h” value is listed as 83.0±5.0 % of control and the “Brain COMT (% of control) 6h” value is given as 119.0±13.0 % of control. Besides, in the assay on Liver COMT, the “Liver COMT (% of control) 1h” value is 17.3±2.7 % of control, the “Liver COMT (% of control) 6h” value is reported as 38.7±4.7 % of control and the “potency upon liver COMT compared with brain COMT” value is listed as “much more potent upon liver COMT than brain COMT”.

Turning to `CC1CN(CC(=O)c2cc(O)c(O)c([N+](=O)[O-])c2)CC(C)O1.Cl` (stereo not shown) [Compound 11, 1-(3,4-Dihydroxy-5-nitro-phenyl)-2-(2,6-dimethyl-morpholin-4-yl)-ethanone hydrochloride], at COMT, the “COMT activity (% of control)” value is recorded as 14.8±1.3 % of control. For the same molecule, in the assay on Brain COMT, the “Brain COMT (% of control) 1h” value was 80.0±5.0 % of control and the “Brain COMT (% of control) 6h” value was 103.0±7.0 % of control. In the assay with Liver COMT, the “Liver COMT (% of control) 1h” value is 38.0±5.0 % of control and the “Liver COMT (% of control) 6h” value is 73.0±10.0 % of control.

Turning to `CC1CC(C)CN(CC(=O)c2cc(O)c(O)c([N+](=O)[O-])c2)C1.Cl` (stereo not shown) [Compound 12, 1-(3,4-Dihydroxy-5-nitro-phenyl)-2-(3,5-dimethyl-piperidin-1-yl)-ethanone hydrochloride], the “COMT activity (% of control)” value at COMT was 15.4±1.8 % of control. In the assay with Brain COMT, the “Brain COMT (% of control) 1h” value is given as 32.0±2.0 % of control and the “Brain COMT (% of control) 6h” value is reported as 84.0±6.0 % of control. In the assay on Liver COMT, the “Liver COMT (% of control) 1h” value is reported as 33.0±2.0 % of control and the “Liver COMT (% of control) 6h” value is 52.0±13.0 % of control.

Take `Cl.Cl.O=C(CN1CCN(c2cccc(C(F)(F)F)c2)CC1)c1cc(O)c(O)c([N+](=O)[O-])c1` [Compound 13, 1-(3,4-Dihydroxy-5-nitro-phenyl)-2-[4-(3-trifluoromethyl-phenyl)-piperazin-1-yl]-ethanone dihydrochloride]: the “COMT activity (% of control)” value on COMT is 7.7±0.6 % of control. For the same molecule, in the assay with Brain COMT, the “Brain COMT (% of control) 1h” value is given as 76.0±9.0 % of control and the “Brain COMT (% of control) 6h” value was 100.0±10.0 % of control. Further, in the assay with Liver COMT, the “Liver COMT (% of control) 1h” value was 49.7±3.2 % of control and the “Liver COMT (% of control) 6h” value is 46.7±2.9 % of control.

As for `Cl.O=C(CCN1CCc2ccccc2C1)c1cc(O)c(O)c([N+](=O)[O-])c1` [Compound 27, 3-(3,4-Dihydro-1H-isoquinolin-2-yl)-1-(3,4-dihydroxy-5-nitro-phenyl)-propan-1-one hydrochloride], the “COMT activity (% of control)” value on COMT is 11.4±4.0 % of control.

With `Cc1ccc(SCC(=O)c2cc(O)c(O)c([N+](=O)[O-])c2)cc1` [Compound 28, 1-(3,4-Dihydroxy-5-nitro-phenyl)-2-p-tolylsulphanyl-ethanone], the “COMT activity (% of control)” value at COMT was 10.0±2.6 % of control.

Regarding `Cl.Cl.O=C(CCN1CCN(C(=O)c2ccccc2)CC1)c1cc(O)c(O)c([N+](=O)[O-])c1` [Compound 29, 3-(4-Benzoyl-piperazin-1-yl)-1-(3,4-dihydroxy-5-nitro-phenyl)-propan-1-one dihydrochloride], the “COMT activity (% of control)” value at COMT is on record as 1.5±0.6 % of control.

`COc1ccc(C(=O)N2CCN(CCC(=O)c3cc(O)c(O)c([N+](=O)[O-])c3)CC2)cc1.Cl.Cl` [Compound 30, 1-(3,4-Dihydroxy-5-nitro-phenyl)-3-[4-(4-methoxy-benzoyl)-piperazin-1-yl]-propan-1-one dihydrochloride]: at COMT, the “COMT activity (% of control)” value is 1.9±1.3 % of control.
